From US12133923B2, “Lipid nanoparticle compositions and uses thereof” (ReCode Therapeutics, Inc., priority 2022, dated 2024)
Where two headings read alike, the source gives them in different places.

Legend:
[1] = tested on: CFTR function in human Bronchial Epithelials (hBE); assay: CFTR function (chloride conductance, MTECC24) in hBE after nebulized CFTR mRNA LNPs; type: cell-based
Procedure: CFTR mRNA was incorporated into various LNP compositions: DODAP-containing Composition B and various non-DODAP lipid nanoparticles (400 μL for Composition A and Composition H) stored in 1× phosphate buffered saline (PBS). The compositions were nebulized using a VitroCell® system with a mesh nebulizer to deliver aerosolized LNPs to primary human Bronchial Epithelials (hBE). CFTR function was measured. The composition of the nanoparticles used in the study is shown below in Table 13.
Experiments were conducted to evaluate the impact of cholesterol on the stability and efficacy of lipid nanoparticle (LNP) compositions. Composition B lipid nanoparticles containing higher molar percentage of cholesterol were created and subjected to test its CFTR function. Chloride conductance was measured with multi transepithelial current clamp system (MTECC24). […] Further, lipid nanoparticles containing 50% molar percentage of cholesterol were created, measured its CFTR function and resulted that increased molar percentage of cholesterol in lipid nanoparticles enhanced CFTR function (FIG. 41). […]
Cystic Fibrosis treatment drugs (Trifkafta or Orkambi) were treated at the time of nebulization. At 24 h post-treatment, chloride conductance was measured with multi transepithelial current clamp system (MTECC24). […]

hBE cells = assay: Transepithelial electrical resistance (TEER) in hBE; type: cell-based, human; conditions: W1282X/W1282X and R553X/W1282X hBE; pre-treatment before LNP nebulization
Procedure: As used herein, the phrase “transepithelial electrical resistance (TEER)” is a measurement method of electrical resistance across a cellular monolayer to confirm the integrity and permeability of a monolayer. Measurement of TEER is described, for example, in Srinivasan et al. J. Lab. Automation 20:107-126 (2015).
Cystic Fibrosis treatment drugs (Trifkafta or Orkambi) were treated at the time of nebulization. At 24 h post-treatment, chloride conductance was measured with multi transepithelial current clamp system (MTECC24). In both cell lines, nebulization of lipid nanoparticles containing CFTR mRNA rescued CFTR function.
To determine whether aerosolized lipid nanoparticles affect cell toxicity, six ΔF508/ΔF508 homozygous genotypes hBE cells were dosed lipid nanoparticles and measured electrical resistance across a cellular monolayer and released lactic acid dehydrogenase (LDH).
To determine whether mucus production affects transfection efficiency of lipid nanoparticles, W1282X/W1282X hBEs and R553X/W1282X hBEs cells were pre-treated Dithiothreitol (DTT) before lipid nanoparticles were nebulized (experimental scheme shown in FIG. 49). […] Cell toxicities were measured by transepithelial electrical resistance (TEER).

[2] = Single dose inhalation study: LNP component lipid levels in blood, lung, liver, spleen; type: in vivo, cynomolgus monkey; conditions: for lipid signal in lung remaining: 72 hr; for lipid signal in lung remaining, % of peak: 7 days; for time of peak lipid level in lung tissue: after inhaled Composition A-DNAI1-HA
Procedure: Group 1 animals were terminated at 24-hours post end of exposure.
Levels of the LNP component lipids 4A3-SC7, 14:0 EPC, and DMG-PEG were measured in blood, lung, liver, and spleen samples following administration of Composition-DNAI1-HA. Blood samples were collected at pre-treatment, 0.5 hr, 1 hr, 6 hr, 24 hr, 48 hr, and 7 days postadministration and processed to separate the plasma and blood cell fractions. Spleen and liver samples were collected at 6 hr, 24 hr, 72 hr, and 7 days post-exposure. Lung tissue was sampled in three locations from the right lung of each animal: Caudal lobe, cranial lobe, and middle lobe at each necropsy time point.

**Q.** What does the source list for `O[C@H](CS)[C@H](O)CS` (racemic) [DTT, Dithiothreitol]?
**A.** chloride flux after nebulization of lipid nanoparticles ([1]; W1282X/W1282X and R553X/W1282X hBE, pre-treatment raised from 3 mM to 10 mM): correlated with higher chloride flux; cell toxicity by TEER (hBE cells): cell integrity was not affected

**Q.** What does the source list for `CCCCCCCCCCCCCC(=O)OCC(COP(=O)(OCC)OCC[N+](C)(C)C)OC(=O)CCCCCCCCCCCCC` (stereo not shown) [14:0 EPC, 1,2-dimyristoyl-sn-glycero-3-ethylphosphocholine]?
**A.** lipid signal in lung remaining ([2]; high dose): 2.5%; lipid signal in lung remaining ([2]; low dose): 13.2%; lipid signal in lung remaining, % of peak ([2]; high dose): 0.8%; lipid signal in lung remaining, % of peak ([2]; low dose): 0.7%; time of peak lipid level in lung tissue [2]: 6 h; lipid level in liver ([2]; all samples except one high dose sample at 6 hr (below assay LOQ)): not detected; concentration at 6 hr ([2]; both sexes, cynomolgus monkey, lung, inhaled, 0.34 mg/kg, 6 hr, high dose (group 3), read-out: lipid level in lung): 13900 to 66700 ng/g; concentration at 1 hr ([2]; both sexes, cynomolgus monkey, plasma, inhaled, 0.34 mg/kg, high dose (group 3), 1 hr, read-out: lipid level in plasma): 1.03 ng/mL; concentration at 6 hr ([2]; both sexes, cynomolgus monkey, plasma, inhaled, 0.34 mg/kg, high dose (group 3), 6 hr, read-out: lipid level in plasma): 1.97 ng/mL; concentration at 6 hr ([2]; both sexes, cynomolgus monkey, spleen, inhaled, 0.34 mg/kg, high dose sample at 6 hr, all others not detected, read-out: lipid level in spleen): 9.56 ng/g; lipid level in plasma ([2]; high dose (group 3), 1 hr): 0.99 ng/mL

**Q.** Which “lipid signal in lung remaining” value ([2]; high dose) does the source give for `CCCCCCCSCC(C)C(=O)OCCOC(=O)CCN(CCCN(C)CCCN(CCC(=O)OCCOC(=O)C(C)CSCCCCCCC)CCC(=O)OCCOC(=O)C(C)CSCCCCCCC)CCC(=O)OCCOC(=O)C(C)CSCCCCCCC` (stereo not shown) [Composition 4A3-SC7] here?
**A.** 0.6%

**Q.** And the “lipid signal in lung remaining” value ([2]; low dose)?
**A.** 13%

**Q.** What about the “lipid level in lung” value ([2]; 7 days post-administration, all samples except one caudal lobe sample in high dose group) of the same compound?
**A.** below the limit of quantitation

**Q.** What about the “time of peak lipid level in lung tissue” value [2] of the same compound?
**A.** 6 h

**Q.** And the concentration at 6 hr ([2]; both sexes, cynomolgus monkey, lung, inhaled, 0.34 mg/kg, 6 hr post-exposure, high dose group, read-out: lipid level in lung)?
**A.** 9550 to 67800 ng/mL

**Q.** With `CC(C)(C)c1cc(C(C)(C)C)c(NC(=O)c2c[nH]c3ccccc3c2=O)cc1O` [Ivacaftor] as the compound, how does the “rescue of CFTR function on addition of CFTR activator” value ([1]; R553X/W1282X and W1282X/W1282X hBE, after delivery of lipid nanoparticles) read?
**A.** further increased rescue of CFTR function
